Measurements taken from US20260027101A1, “BACTERIAL TOPOISOMERASE INHIBITORS” (priority 2022, published 2026).
Converted amounts (≈) assume the structure as drawn.

Columns and labels:
Assay type in all cases: cell-based
[1] = tested on: Staphylococcus aureus D83N (29213-derived strain, GyrA substitution); assay: microbe, parasite or virus in culture; details: read-out: MIC against Staphylococcus aureus D83N
Procedure: (§1) Minimum inhibitory concentrations (MICs) were determined in triplicate according to Clinical and Laboratory Standards Institute (CLSI) guidelines using one or more strains of S. aureus or selected Gram-negative bacteria. […] Compounds were also assayed using a USA300 (Hidron, A. I., et al., Emergence of Community-Acquired Meticillin-Resistant Staphylococcus aureus Strain USA300 as a Cause of Necrotising Community-Onset Pneumonia. Lancet Infect. Dis. 2009, 9. 384-392) isolate of MRSA as well as a S. aureus strain isolated from a cystic fibrosis patient.

[2] = tested on: Salmonella enterica 14028 ΔtolC (efflux-deficient strain); assay: microbe, parasite or virus in culture; details: Salmonella enterica, read-out: MIC against Salmonella enterica 14028 ΔtolC
Procedure: as §1

[3] = tested on: Staphylococcus aureus M121K (29213-derived strain, GyrA substitution); assay: microbe, parasite or virus in culture; details: read-out: MIC against Staphylococcus aureus M121K
Procedure: as §1

[4] = tested on: Salmonella enterica ATCC 14028; assay: MIC, Salmonella enterica ATCC 14028; details: ATCC14028, read-out: MIC against Salmonella enterica ATCC 14028
Procedure: as §1

[5] = tested on: Pseudomonas aeruginosa ATCC 27853; assay: MIC, Pseudomonas aeruginosa ATCC 27853; details: ATCC27853, read-out: MIC against Pseudomonas aeruginosa ATCC 27853
Procedure: as §1

[6] = tested on: Staphylococcus aureus CF isolate; assay: MIC, S. aureus cystic fibrosis isolate (CLSI); details: read-out: MIC against Staphylococcus aureus CF isolate
Procedure: as §1

[7] = tested on: Staphylococcus aureus USA300 (MRSA isolate); assay: MIC, S. aureus USA300 MRSA isolate (CLSI); details: read-out: MIC against Staphylococcus aureus USA300
Procedure: as §1

[8] = tested on: Staphylococcus aureus ATCC 29213; assay: MIC, S. aureus ATCC 29213 (CLSI); details: ATCC29213, read-out: MIC against Staphylococcus aureus ATCC 29213
Procedure: as §1

| SMILES | MIC [1] | MIC [2] | MIC [3] | also measured |
| --- | --- | --- | --- | --- |
| COc1ccc2ncc(F)c(CCN3CCC(C(O)C(O)c4ccc(C)cc4)CC3)c2n1 (single isomer, unassigned) [Example 13, 1-(1-(2-(3-fluoro-6-methoxy-1,5-naphthyridin-4-yl)ethyl)piperidin-4-yl)-2-(p-tolyl)ethane-1,2-diol] | > 32 µg/mL |  |  |  |
| COc1ccc2ncc(F)c(CCN3CCC(C(O)C(O)c4ccc5c(c4)NC(=O)CO5)CC3)c2n1 (single isomer, unassigned) [Example 15, 6-(-2-(1-(2-(3-fluoro-6-methoxy-1,5-naphthyridin-4-yl)ethyl)piperidin-4-yl)-1,2-dihydroxyethyl)-2H-benzo[b][1,4]oxazin-3(4H)-one] |  | 0.5 µg/mL (≈ 1.01 µM) |  |  |
| COc1ccc2ncc(F)c(CCN3CCC(C(O)C(O)c4ccc(C)cc4)CC3)c2n1 (single isomer, unassigned) [Example 16, 1-(1-(2-(3-fluoro-6-methoxy-1,5-naphthyridin-4-yl)ethyl)piperidin-4-yl)-2-(p-tolyl)ethane-1,2-diol] |  |  | 4 µg/mL (≈ 9.1 µM) |  |
| COc1ccc2ncc(F)c(CCN3CCC(/C=C/c4ccc(C)cc4)CC3)c2n1 [Example 1, (E)-7-fluoro-2-methoxy-8-(2-(4-(4-methylstyryl)piperidin-1-yl)ethyl)-1,5-naphthyridine] |  | 0.5 to 1 µg/mL (≈ 1.23 to 2.47 µM) | 2 to 4 µg/mL (≈ 4.93 to 9.86 µM) |  |
| COc1ccc2ncc(F)c(CCN3CCC([C@@H](O)[C@H](O)c4ccc(C)cc4)CC3)c2n1 [Example 4, (1R,2R)-1-(1-(2-(3-fluoro-6-methoxy-1,5-naphthyridin-4-yl)ethyl)piperidin-4-yl)-2-(p-tolyl)ethane-1,2-diol] |  | 0.5 to 1 µg/mL (≈ 1.14 to 2.28 µM) |  |  |
| COc1ccc2ncc(F)c(CCN3CCC([C@@H](O)[C@H](O)c4ccc5c(c4)OCCO5)CC3)c2n1 [Example 5, (1R,2R)-1-(2,3-dihydrobenzo[b][1,4]dioxin-6-yl)-2-(1-(2-(3-fluoro-6-methoxy-1,5-naphthyridin-4-yl)ethyl)piperidin-4-yl)ethane-1,2-diol] |  | 0.5 µg/mL (≈ 1.03 µM) |  |  |
| COc1ccc2ncc(F)c(CCN3CCC([C@@H](O)[C@H](O)c4ccc5c(c4)NC(=O)CO5)CC3)c2n1 [Example 6, 6-((1R,2R)-2-(1-(2-(3-fluoro-6-methoxy-1,5-naphthyridin-4-yl)ethyl)piperidin-4-yl)-1,2-dihydroxyethyl)-2H-benzo[b][1,4]oxazin-3(4H)-one] | > 32 µg/mL |  | > 32 µg/mL |  |
| COc1ccc2ncc(F)c(CCN3CCC([C@H](O)[C@@H](O)c4ccc(C)cc4)CC3)c2n1 [Example 7, (1S,2S)-1-(1-(2-(3-fluoro-6-methoxy-1,5-naphthyridin-4-yl)ethyl)piperidin-4-yl)-2-(p-tolyl)ethane-1,2-diol] | > 32 µg/mL |  | > 32 µg/mL |  |
| COc1ccc2ncc(F)c(CCN3CCC([C@H](O)[C@@H](O)c4ccc5c(c4)NC(=O)CO5)CC3)c2n1 [Example 9, 6-((1S,2S)-2-(1-(2-(3-fluoro-6-methoxy-1,5-naphthyridin-4-yl)ethyl)piperidin-4-yl)-1,2-dihydroxyethyl)-2H-benzo[b][1,4]oxazin-3(4H)-one] | > 32 µg/mL | 0.25 µg/mL (≈ 0.503 µM) | > 32 µg/mL |  |
| COc1ccc2ncc(F)c(CCN3CCC(/C=C\c4ccc(C)cc4)CC3)c2n1 [Example 10, (Z)-7-fluoro-2-methoxy-8-(2-(4-(4-methylstyryl)piperidin-1-yl)ethyl)-1,5-naphthyridine] | 32 µg/mL (≈ 78.9 µM) | 8 µg/mL (≈ 19.7 µM) | 32 µg/mL (≈ 78.9 µM) |  |
| COc1ccc2ncc(F)c(CCN3CCC(CCc4ccc(C)cc4)CC3)c2n1 [Example 19, 7-fluoro-2-methoxy-8-(2-(4-(4-methylphenethyl)piperidin-1-yl)ethyl)-1,5-naphthyridine] | 4 µg/mL (≈ 9.82 µM) |  | > 16 µg/mL |  |
| COc1ccc2ncc(F)c(CCN3CCC(CCc4ccc5c(c4)OCCO5)CC3)c2n1 [Example 20, 8-(2-(4-(2-(2,3-dihydrobenzo[b][1,4]dioxin-6-yl)ethyl)piperidin-1-yl)ethyl)-7-fluoro-2-methoxy-1,5-naphthyridine] | 8 µg/mL (≈ 17.7 µM) | 0.25 µg/mL (≈ 0.554 µM) | > 8 µg/mL |  |
| COc1ccc2ncc(F)c(CCN3CCC(CCc4ccc5c(c4)NC(=O)CO5)CC3)c2n1 [Example 21, 6-(2-(1-(2-(3-fluoro-6-methoxy-1,5-naphthyridin-4-yl)ethyl)piperidin-4-yl)ethyl)-2H-benzo[b][1,4]oxazin-3(4H)-one] |  |  | 64 µg/mL (≈ 138 µM) |  |
| COc1ccc2ncc(F)c(CCN3CCC(C(=O)Cc4ccc5c(c4)OCCO5)CC3)c2n1 [Example 23, 2-(2,3-dihydrobenzo[b][1,4]dioxin-6-yl)-1-(1-(2-(3-fluoro-6-methoxy-1,5-naphthyridin-4-yl)ethyl)piperidin-4-yl)ethan-1-one] | 32 µg/mL (≈ 68.7 µM) |  | > 32 µg/mL | MIC [4]: > 64 µg/mL; MIC [5]: > 64 µg/mL; MIC [6]: 8 µg/mL (≈ 17.2 µM) |
| COc1ccc2ncc(F)c(CCN3CCC(C(O)Cc4ccc(C)cc4)CC3)c2n1 (stereo not drawn) [Example 25, 1-(1-(2-(3-fluoro-6-methoxy-1,5-naphthyridin-4-yl)ethyl)piperidin-4-yl)-2-(p-tolyl)ethan-1-ol] | 8 µg/mL (≈ 18.9 µM) | 1 µg/mL (≈ 2.36 µM) | 8 µg/mL (≈ 18.9 µM) |  |
| COc1ccc2ncc(F)c(CCN3CCC(C(O)Cc4ccc5c(c4)OCCO5)CC3)c2n1 (stereo not drawn) [Example 26, 2-(2,3-dihydrobenzo[b][1,4]dioxin-6-yl)-1-(1-(2-(3-fluoro-6-methoxy-1,5-naphthyridin-4-yl)ethyl)piperidin-4-yl)ethan-1-ol] | 4 µg/mL (≈ 8.56 µM) |  | 4 µg/mL (≈ 8.56 µM) |  |
| COc1ccc2ncc(F)c(CCN3CCC(C(O)Cc4ccc5c(c4)OCC(=O)N5)CC3)c2n1 (stereo not drawn) [Example 27, 7-(2-(1-(2-(3-fluoro-6-methoxy-1,5-naphthyridin-4-yl)ethyl)piperidin-4-yl)-2-hydroxyethyl)-2H-benzo[b][1,4]oxazin-3(4H)-one] |  | ≤ 0.125 µg/mL | 32 µg/mL (≈ 66.6 µM) |  |
| COc1ccc2ncc(F)c(CCN3CCC(C(N)Cc4ccc(C)cc4)CC3)c2n1 (stereo not drawn) [Example 28, 1-(1-(2-(3-fluoro-6-methoxy-1,5-naphthyridin-4-yl)ethyl)piperidin-4-yl)-2-(p-tolyl)ethan-1-amine] | 32 µg/mL (≈ 75.7 µM) |  | > 32 µg/mL |  |
| COc1ccc2ncc(F)c(CCN3CCC(C(N)Cc4ccc5c(c4)OCCO5)CC3)c2n1 (stereo not drawn) [Example 29, 2-(2,3-dihydrobenzo[b][1,4]dioxin-6-yl)-1-(1-(2-(3-fluoro-6-methoxy-1,5-naphthyridin-4-yl)ethyl)piperidin-4-yl)ethan-1-amine] | > 16 µg/mL |  | > 16 µg/mL |  |
| COc1ccc2ncc(F)c(CCN3CCC(C(N)Cc4ccc5c(c4)NC(=O)CO5)CC3)c2n1 (stereo not drawn) [Example 30, 6-(2-amino-2-(1-(2-(3-fluoro-6-methoxy-1,5-naphthyridin-4-yl)ethyl)piperidin-4-yl)ethyl)-2H-benzo[b][1,4]oxazin-3(4H)-one] |  |  | > 64 µg/mL |  |
| CN[C@H](CC(C)C)C(=O)N[C@H]1C(=O)N[C@@H](CC(N)=O)C(=O)N[C@H]2C(=O)N[C@H]3C(=O)N[C@H](C(=O)N[C@H](C(=O)O)c4cc(O)cc(O)c4-c4cc3ccc4O)[C@H](O)c3ccc(c(Cl)c3)Oc3cc2cc(c3O[C@@H]2O[C@H](CO)[C@@H](O)[C@H](O)[C@H]2O[C@H]2C[C@](C)(N)[C@H](O)[C@H](C)O2)Oc2ccc(cc2Cl)[C@H]1O [vancomycin, reference compound] | 1 µg/mL (≈ 0.69 µM) |  | 1 µg/mL (≈ 0.69 µM) | MIC [7]: 1 µg/mL (≈ 0.69 µM); MIC [8]: 1 to 2 µg/mL (≈ 0.69 to 1.38 µM); MIC [6]: 1 µg/mL (≈ 0.69 µM) |
